Laboratory results taken from PubChem BioAssay (NCI).
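All cell lines were grown in 96-well plates and treated with compound for 48 hours. TGI marks complete inhibition of growth.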

Legend:
Assay in all cases: NCI tumour cell line growth inhibition, 48 h
P388 leukemia = system: P388 leukemia
P388/ADR leukemia = system: P388/ADR leukemia
SN12K1 renal = system: SN12K1 renal
LXFL 529 NSCLC = system: LXFL 529 NSCLC

| SMILES | TGI (P388 leukemia) [µM] | TGI (P388/ADR leukemia) [µM] | TGI (SN12K1 renal) [µM] | TGI (LXFL 529 NSCLC) [µM] |
| --- | --- | --- | --- | --- |
| O=C(CCN1CCOCC1)/C(=C/c1ccccc1)c1ccccc1 | 12.4 | 3.99 | 10.9 | – |
| O=C(O)CCC(=O)OCN1C(=O)C2C3C=CC(C2C1=O)C1C2C(=O)N(COC(=O)CCC(=O)O)C(=O)C2C31 (centres undefined) | – | – | – | > 100 |
